Experimental findings from ChEMBL document CHEMBL5375952, “Discovery of Novel 8-Hydroxyquinoline Derivatives with Potent In Vitro and In Vivo Antifungal Activity” (J Med Chem, 2023) are described below.

Each structure is given as a SMILES string. Converted amounts (≈) assume the structure as drawn.

Data set [1] has as its system Candida albicans. Nature of the data set: Antifungal activity against Candida albicans 22 assessed as fungal growth inhibition incubated for 48 hrs by broth microdilution method. Format: functional. For orientation: Broth dilution looks for growth in wells or tubes with falling amounts of substance.
For data set [2], the system named is Candida albicans. Nature of the data set: Antifungal activity against Candida albicans 21 assessed as fungal growth inhibition incubated for 48 hrs by broth microdilution method. Format: functional.
Data set [3] deals with Candida albicans. Nature of the data set: Antifungal activity against Candida albicans SC5314 assessed as fungal growth inhibition incubated for 48 hrs by broth microdilution method. Format: functional.
Data set [4] deals with Candida parapsilosis. Nature of the data set: Antifungal activity against Candida parapsilosis 105 assessed as fungal growth inhibition incubated for 48 hrs by broth microdilution method. In kind it is functional. Particulars: Lodderomyces parapsilosis.
Data set [5] has as its system Cryptococcus neoformans. Nature of the data set: Antifungal activity against Cryptococcus neoformans 445 assessed as fungal growth inhibition incubated for 48 hrs by broth microdilution method. Format: functional.
Data set [6] has as its system Candida parapsilosis. Nature of the data set: Antifungal activity against Candida parapsilosis 125 assessed as fungal growth inhibition incubated for 48 hrs by broth microdilution method. In kind it is functional. As to conditions: Lodderomyces parapsilosis.
For data set [7], the system named is Candida parapsilosis. Put plainly: Antifungal activity against Candida parapsilosis 107 assessed as fungal growth inhibition incubated for 48 hrs by broth microdilution method. Format: functional. Particulars: Lodderomyces parapsilosis.
Data set [8] deals with Candida tropicalis. Put plainly: Antifungal activity against Candida tropicalis 184 assessed as fungal growth inhibition incubated for 48 hrs by broth microdilution method. In kind it is functional.
Data set [9] relates to Nakaseomyces glabratus. Put plainly: Antifungal activity against Candida glabrata 205 assessed as fungal growth inhibition incubated for 48 hrs by broth microdilution method. In kind it is functional.
The test system of data set [10] is Pichia kudriavzevii. Put plainly: Antifungal activity against Candida krusei 68 assessed as fungal growth inhibition incubated for 48 hrs by broth microdilution method. In kind it is functional.
Data set [11] relates to Aspergillus fumigatus. Put plainly: Antifungal activity against Aspergillus fumigatus A assessed as fungal growth inhibition incubated for 48 hrs by broth microdilution method. Format: functional.
The subject of data set [12] is Pichia kudriavzevii. Put plainly: Antifungal activity against Candida krusei 69 assessed as fungal growth inhibition incubated for 48 hrs by broth microdilution method. Format: functional.
The test system of data set [13] is Candida tropicalis. Put plainly: Antifungal activity against Candida tropicalis 176 assessed as fungal growth inhibition incubated for 48 hrs by broth microdilution method. Format: functional.
The subject of data set [14] is Cryptococcus neoformans. Nature of the data set: Antifungal activity against Cryptococcus neoformans 443 assessed as fungal growth inhibition incubated for 48 hrs by broth microdilution method. Format: functional.
The subject of data set [15] is Candida tropicalis. Nature of the data set: Antifungal activity against Candida tropicalis 178 assessed as fungal growth inhibition incubated for 48 hrs by broth microdilution method. Format: functional.
For data set [16], the system named is Nakaseomyces glabratus. Put plainly: Antifungal activity against Candida glabrata 201 assessed as fungal growth inhibition incubated for 48 hrs by broth microdilution method. In kind it is functional.
Data set [17] deals with Pichia kudriavzevii. Nature of the data set: Antifungal activity against Candida krusei 477 assessed as fungal growth inhibition incubated for 48 hrs by broth microdilution method. In kind it is functional.
A short description of data set [18]: Cytotoxicity against human Caco-2 cells assessed as cell growth inhibition incubated for 24 hrs by CCK8 assay. In kind it is toxicity, cell-based. A general note: Tetrazolium assays rely on reduction of a dye to a coloured formazan, in cell work by metabolically active cells.
Data set [19] deals with Nakaseomyces glabratus. Nature of the data set: Antifungal activity against Candida glabrata 202 assessed as fungal growth inhibition incubated for 48 hrs by broth microdilution method. Format: functional.
For data set [20], the system named is Aspergillus fumigatus. Nature of the data set: Antifungal activity against Aspergillus fumigatus 023-12 assessed as fungal growth inhibition incubated for 48 hrs by broth microdilution method. Format: functional.
The subject of data set [21] is Aspergillus fumigatus. Nature of the data set: Antifungal activity against Aspergillus fumigatus 7544 assessed as fungal growth inhibition incubated for 48 hrs by broth microdilution method. Format: functional.
The test system of data set [22] is Cryptococcus neoformans. Put plainly: Antifungal activity against Cryptococcus neoformans 444 assessed as fungal growth inhibition incubated for 48 hrs by broth microdilution method. Format: functional.

As usually defined, the MIC is the lowest concentration found to suppress growth. Regarding `O=C(Cc1ccccc1)NC(c1ccc(OC(F)F)cc1)c1ccc2cccnc2c1O` (stereo not given), the MIC in the data set with Candida albicans [1] came out at 0.5 mg/L (≈ 1.15 µM); in the data set on Candida albicans [2], 0.5 mg/L (≈ 1.15 µM); in the data set on Candida albicans [3], 1 mg/L (≈ 2.3 µM).

Consider `COc1ccc(C(NC(=O)CC(C)C)c2ccc3cccnc3c2O)cc1OC` (stereo not given), for which the MIC in the data set with Candida albicans [1], in the data set on Candida albicans [2] and with Candida albicans [3] was 0.5 mg/L (≈ 1.27 µM) each time.

Consider `CSc1ccc(C(NC(=O)Cc2ccccc2)c2ccc3cccnc3c2O)cc1` (stereo not given), for which the MIC stood at 4 mg/L (≈ 9.65 µM) in the data set on Candida albicans [1], 2 mg/L (≈ 4.82 µM) in the data set on Candida albicans [2] and 1 mg/L (≈ 2.41 µM) with Candida albicans [3].

In the case of `O=C(Cc1ccccc1)NC(c1ccc(F)cc1)c1ccc2cccnc2c1O` (stereo not given), the MIC with Candida albicans [1] was 1 mg/L (≈ 2.59 µM); in the data set with Candida albicans [2], 1 mg/L (≈ 2.59 µM); in the data set with Candida albicans [3], 0.5 mg/L (≈ 1.29 µM).

Take `O=C(Cc1ccccc1)NC(c1ccc(Cl)c(Cl)c1)c1ccc2cccnc2c1O` (stereo not given): the MIC was determined as 1 mg/L (≈ 2.29 µM) in the data set on Candida albicans [1], 1 mg/L (≈ 2.29 µM) in the data set with Candida albicans [2] and 0.5 mg/L (≈ 1.14 µM) in the data set with Candida albicans [3].

Take `CC(C)C(=O)NC(c1ccc(OC(F)(F)F)cc1)c1ccc2cccnc2c1O` (stereo not given): the MIC in the data set with Candida albicans [1] is 1 mg/L (≈ 2.47 µM); with Candida albicans [2], 1 mg/L (≈ 2.47 µM); in the data set with Candida albicans [3], 0.5 mg/L (≈ 1.24 µM).

As to `CCC(=O)NC(c1cccc([N+](=O)[O-])c1)c1ccc2cccnc2c1O` (stereo not given), the MIC in the data set on Candida albicans [1], in the data set on Candida albicans [2] and with Candida albicans [3] was 4 mg/L (≈ 11.4 µM) each time.

`Cc1ccc(C(NC(=O)Cc2ccccc2)c2ccc3cccnc3c2O)cc1` (stereo not given): the MIC in the data set with Candida albicans [1] was 1 mg/L (≈ 2.61 µM); with Candida albicans [2], 0.25 mg/L (≈ 0.654 µM); in the data set on Candida albicans [3], 1 mg/L (≈ 2.61 µM).

`CC(C)C(=O)NC(c1ccc(S(C)(=O)=O)cc1)c1ccc2cccnc2c1O` (stereo not given): the MIC with Candida albicans [1] was found to be 1 mg/L (≈ 2.51 µM); with Candida albicans [2] it was 2 mg/L (≈ 5.02 µM); in the data set on Candida albicans [3] it was 2 mg/L (≈ 5.02 µM).

On to `CC(C)C(=O)NC(c1ccc(Br)cc1)c1ccc2cccnc2c1O` (stereo not given), for which the MIC is 1 mg/L (≈ 2.5 µM) in the data set with Candida albicans [1], 0.5 mg/L (≈ 1.25 µM) in the data set on Candida albicans [2] and 2 mg/L (≈ 5.01 µM) in the data set on Candida albicans [3].

For `CCCC(=O)NC(c1ccccc1)c1ccc2cccnc2c1O` (stereo not given), the MIC in the data set on Candida albicans [1], in the data set on Candida albicans [2] and in the data set with Candida albicans [3] was 1 mg/L (≈ 3.12 µM) each time.

Consider `CCC(=O)NC(c1ccc(C)cc1)c1ccc2cccnc2c1O` (stereo not given), for which the MIC with Candida albicans [1], in the data set on Candida albicans [2] and in the data set on Candida albicans [3] was 0.5 mg/L (≈ 1.56 µM) throughout.

With `CCN(CC)c1ccc(C(NC(=O)CCc2ccccc2)c2ccc3cccnc3c2O)cc1` (stereo not given), the results for the MIC with Candida albicans [1], in the data set with Candida albicans [2] and in the data set on Candida albicans [3] were 1 mg/L (≈ 2.2 µM), 0.25 mg/L (≈ 0.551 µM) and 2 mg/L (≈ 4.41 µM), respectively.

Regarding `CC(C)C(=O)NC(c1ccc(OC(F)F)cc1)c1ccc2cccnc2c1O` (stereo not given), the figures for the MIC with Candida albicans [1], in the data set on Candida albicans [2] and with Candida albicans [3] were 0.5 mg/L (≈ 1.29 µM), 0.5 mg/L (≈ 1.29 µM) and 1 mg/L (≈ 2.59 µM), respectively.

Take `CC(C)C(=O)NC(c1ccc(Cl)cc1)c1ccc2cccnc2c1O` (stereo not given): the MIC in the data set with Candida albicans [1] was 0.5 mg/L (≈ 1.41 µM); in the data set on Candida albicans [2], 0.25 mg/L (≈ 0.705 µM); in the data set with Candida albicans [3], 1 mg/L (≈ 2.82 µM).

`CC(=O)NC(c1ccc2ccccc2c1)c1ccc2cccnc2c1O` (stereo not given): the results for the MIC with Candida albicans [1], in the data set with Candida albicans [2] and in the data set with Candida albicans [3] were 0.125 mg/L (≈ 0.365 µM), 0.5 mg/L (≈ 1.46 µM) and 0.25 mg/L (≈ 0.73 µM), respectively.

On to `CSc1ccc(C(NC(=O)C(C)C)c2ccc3cccnc3c2O)cc1` (stereo not given), for which the MIC in the data set with Candida albicans [1] came out at 2 mg/L (≈ 5.46 µM); with Candida albicans [2], 1 mg/L (≈ 2.73 µM); in the data set with Candida albicans [3], 2 mg/L (≈ 5.46 µM).

Consider `COc1ccc(C(NC(C)=O)c2ccc3cccnc3c2O)c(OC)c1` (stereo not given), for which the MIC in the data set with Candida albicans [1], with Candida albicans [2] and with Candida albicans [3] was 4 mg/L (≈ 11.4 µM) in each case.

Take `CCC(=O)NC(c1ccccc1OC)c1ccc2cccnc2c1O` (stereo not given): the MIC was 16 mg/L (≈ 47.6 µM) in the data set on Candida albicans [1], 8 mg/L (≈ 23.8 µM) in the data set on Candida albicans [2] and 4 mg/L (≈ 11.9 µM) with Candida albicans [3].

With `COc1ccc(C(NC(=O)Cc2ccccc2)c2ccc3cccnc3c2O)cc1` (stereo not given), the MIC with Candida albicans [1] is 1 mg/L (≈ 2.51 µM); in the data set on Candida albicans [2], 0.5 mg/L (≈ 1.25 µM); with Candida albicans [3], 2 mg/L (≈ 5.02 µM).

The IC50 is the concentration that inhibits the measured activity by half. Take `COc1ccccc1C(NC(=O)Cc1ccccc1)c1ccc2cccnc2c1O` (stereo not given): the MIC in the data set with Candida parapsilosis [4] is 0.125 mg/L (≈ 0.314 µM); in the data set with Cryptococcus neoformans [5] it was 0.5 mg/L (≈ 1.25 µM); with Candida parapsilosis [6], 0.125 mg/L (≈ 0.314 µM); with Candida parapsilosis [7], 0.125 mg/L (≈ 0.314 µM); with Candida tropicalis [8], above 64 mg/L; in the data set with Nakaseomyces glabratus [9] it was 0.5 mg/L (≈ 1.25 µM). For the same molecule, the MIC in the data set on Pichia kudriavzevii [10] is 0.125 mg/L (≈ 0.314 µM); in the data set with Aspergillus fumigatus [11] it was 2 mg/L (≈ 5.02 µM); with Pichia kudriavzevii [12], 0.25 mg/L (≈ 0.627 µM); in the data set with Candida tropicalis [13], above 64 mg/L; with Cryptococcus neoformans [14], 0.125 mg/L (≈ 0.314 µM); in the data set on Candida tropicalis [15], above 64 mg/L. In addition, the MIC in the data set on Nakaseomyces glabratus [16] came to 0.125 mg/L (≈ 0.314 µM); with Candida albicans [1], 0.125 mg/L (≈ 0.314 µM); with Pichia kudriavzevii [17] it was 0.25 mg/L (≈ 0.627 µM); in the data set with Nakaseomyces glabratus [19], 0.125 mg/L (≈ 0.314 µM); in the data set with Aspergillus fumigatus [20] it was 2 mg/L (≈ 5.02 µM); with Aspergillus fumigatus [21] it was 2 mg/L (≈ 5.02 µM). The MIC with Candida albicans [2] was below 0.125 mg/L; in the data set with Candida albicans [3] it was 0.125 mg/L (≈ 0.314 µM); with Cryptococcus neoformans [22], 0.125 mg/L (≈ 0.314 µM). Moreover, the IC50 at 24 h in [18] was above 64 mg/L.

Consider `O=C(Cc1ccccc1)NC(c1ccc(Br)cc1)c1ccc2cccnc2c1O` (stereo not given), for which the MIC in the data set with Candida albicans [1] worked out at 1 mg/L (≈ 2.24 µM); with Candida albicans [2] it was 1 mg/L (≈ 2.24 µM); in the data set on Candida albicans [3], 2 mg/L (≈ 4.47 µM).
